Laboratory results published in US6106744A, “Photochromic pyrano-fused naphthopyrans” (PPG Industries Ohio, Inc., priority 1997, dated 2000).

Tests used:
[1] = Photochromic response of test squares on an optical bench; assay type: physicochemical; conditions: for Bleach Rate T 1/2: time to one half the highest absorbance at room temperature (72° F., 22.2° C.) after removal of activating light; for Sensitivity ΔOD/min: first five (5) seconds of UV exposure, expressed per minute, 72° F. (22.2° C.), 0.15 to 0.20 mW/cm^2
Procedure: (§1) Testing was done with the photochromic compounds prepared in Examples 1, 2, 3 and 4 in the following manner. A quantity of each photochromic compound calculated to yield a 1.5×10^-3 molal solution was added to a flask containing 50 grams of a monomer blend of 4 parts ethoxylated bisphenol A dimethacrylate (BPA 2EO DMA), 1 part poly(ethylene glycol) 600 dimethacrylate, and 0.033 weight percent 2,2'-azobis(2-methyl propionitrile) (AIBN). Each photochromic compound was dissolved into the monomer blend by stirring and gentle heating. After a clear solution was obtained, it was poured into a flat sheet mold having the interior dimensions of 2.2 mm×6 inches (15.24 cm)×6 inches (15.24 cm). The mold was sealed and placed in a horizontal air flow, programmable oven programmed to increase the temperature from 40° C. to 95° C. over a 5 hour interval, hold the temperature at 95° C. for 3 hours, lower it to 60° C. over a 2 hour interval and then hold at 60° C. for 16 hours. After the mold was opened, the polymer sheet was cut using a diamond blade saw into 2 inch (5.1 centimeters) test squares.
The photochromic test squares prepared in Part A were tested for photochromic response on an optical bench. Prior to testing on the optical bench, the photochromic test squares were exposed to 365 nanometer ultraviolet light for about 15 minutes to activate the photochromic compounds and then placed in a 76° C. oven for about 15 minutes to bleach or inactivate the photochromic compounds. The test squares were then cooled to room temperature, exposed to fluorescent room lighting for at least 2 hours and then kept covered for at least 2 hours prior to testing on an optical bench maintained at 72° F. (22.2° C.). The bench was fitted with a 150 watt Xenon arc lamp, a remote controlled shutter, a copper sulfate bath acting as a heat sink for the arc lamp, a Schott WG-320 nm cut-off filter which removes short wavelength radiation; neutral density filter(s) and a sample holder in which the square to be tested was inserted. The power output of the optical bench, i.e., the dosage of light that the sample lens would be exposed to, was calibrated with a photochromic test square used as a reference standard. […] The UV-A detector was placed into the sample holder and the light output was measured. […]
A monitoring, collimated beam of light from a tungsten lamp was passed through the square at a small angle (approximately 30° ) normal to the square. After passing through the square, the light from the tungsten lamp was directed to a detector through Spectral Energy Corp. GM-200 monochromator set at the previously determined visible lambda max of the photochromic compound being measured. […]
Change in optical density (ΔOD) was determined by inserting a test square in the bleached state into the sample holder, adjusting the transmittance scale to 100% opening the shutter from the Xenon lamp to provide ultraviolet radiation to change the test square from the bleached state to an activated (i.e., darkened) state, measuring the transmittance in the activated state, and calculating the change in optical density according to the formula: ΔOD=log (100/%Ta), where %Ta is the percent transmittance in the activated state and the logarithm is to the base 10.
The Δ OD/Min, which represents the sensitivity of the photochromic compound's response to UV light, was measured over the first five (5) seconds of UV exposure, then expressed on a per minute basis. […]

[2] = lambda max (Vis) of activated form in test square polymerizates (Varian Cary 3 UV-Visible spectrophotometer); assay type: physicochemical; conditions: activated (colored) form in test square; BPA 2EO DMA / poly(ethylene glycol) 600 dimethacrylate polymer
Procedure: as §1
The Δ OD/Min, which represents the sensitivity of the photochromic compound's response to UV light, was measured over the first five (5) seconds of UV exposure, then expressed on a per minute basis. The saturation optical density (Δ OD@ Saturation) was taken under identical conditions as the Δ OD/Min, except UV exposure was continued for 15 minutes. The lambda max (Vis) is the wavelength in nanometers (nm) in the visible spectrum at which the maximum absorption of the activated (colored) form of the photochromic compound in a test square occurs. The lambda max (Vis) wavelength was determined by testing the photochromic test square polymerizates of Part A in a Varian Cary 3 UV-Visible spectrophotometer. The Bleach Rate (T 1/2) is the time interval in seconds for the absorbance of the activated form of the photochromic compound in the test squares to reach one half the highest absorbance at room temperature (72° F., 22.2° C.) after removal of the source of activating light.

Row | Bleach Rate T 1/2 [1] | lambda max (Vis) [2] | Sensitivity ΔOD/min [1] | Compound
1 | 0.833 min | 492 nanometers |  | Cc1ccc2c3c(c4c(=O)oc(C(c5ccccc5)c5ccccc5)cc4c2c1)C=CC(c1ccccc1)(c1ccccc1)O3 [Example 1, 2,2-diphenyl-7-diphenylmethyl-10-methyl-2,5-dihydro-5-oxo-pyrano[3',4':3,4]naphtho[1,2-b]pyran]
2 | 3.03 min | 569 nanometers | 0.33 ΔOD/min | COc1ccc(C2(c3ccc(OC)cc3)C=Cc3c4c(c5cc(C)ccc5c3O2)C=C(C(c2ccccc2)c2ccccc2)OC4)cc1 [Example 3, 2,2-di(4-methoxyphenyl)-7-diphenylmethyl-10-methyl-2,5-dihydro-pyrano[3',4':3,4]naphtho[1,2-b]pyran]
3 | 4.68 min | 592 nanometers | 0.39 ΔOD/min | Cc1ccc2c3c(c4c(c2c1)C=C(C(c1ccccc1)c1ccccc1)OC4)C=CC(c1ccccc1)(c1ccc(N2CCOCC2)cc1)O3 (centres unmarked) [Example 4, 2-phenyl-2-(4-morpholinophenyl)-7-diphenylmethyl-10-methyl-2,5-dihydro-pyrano[3',4':3,4]naphtho[1,2-b]pyran]
